Measurements reported in patent US12428396B2, “Fused pyridine ring derivative, preparation method therefor, and pharmaceutical use thereof” (priority 2019, dated 2025).
Like-named read-outs stand apart in the source and are kept apart here.

How the values were obtained:
[1] = Beagle pharmacokinetic study (ig/sc/iv, plasma LC/MS/MS); format: in vivo, beagles; conditions: for AUC(0-t) / half-life / Cmax: dog, plasma; for AUC(0-t): read-out: Area under curve AUC0-72; for half-life: read-out: Half life T½ (converted); for Cmax: read-out: Plasma concentration Cmax
Description: Taking beagles as test animals, and the drug concentrations in dog plasma at various times after intragastric administration (ig)/subcutaneous injection (sc)/intravenous injection (iv) administration of the compound of Example 1-1 and Positive Control Example 1 were measured by using LC/MS/MS method. The pharmacokinetic performance in beagles of the compounds of the present disclosure was studied and the pharmacokinetic profile thereof was evaluated.
18 non-naïve beagles (999M-004, medicilon) with 7-12 kg, every 3 of which were in one group.
The intragastric administration group: a certain amount of the compounds was weighed, ethanol with a volume of 5% of the final volume, 20% PG, 45% PEG300 and 30% deionized water were added (the pH was adjusted to be about 2 with 0.01 N HCl), and the reaction mixture was subjected to ultrasonic stirring for uniform mixing to give an administration solution at a concentration of 0.8 mg/mL.
The subcutaneous injection administration group: a certain amount of the compounds was weighed, 2% aqueous poloxamer 188 solution with a proper volume was added, and the reaction mixture was subjected to ultrasonic stirring for uniform mixing to give a suspension administration solution at a concentration of 200 mg/mL.
The intravenous administration group: a certain amount of the compounds was weighed, 5% volume of DMSO, 30% PG, 30% PEG400 and 35% volume of normal saline were added, and the reaction mixture was subjected to vortex ultrasonic stirring for uniform mixing to give an administration solution at a concentration of 0.5 mg/mL.
Beagles were intragastrically administered with the compounds after fasting overnight, at a dose of 4.0 mg/kg and a volume of 5.0 mL/kg.
Beagles were subcutaneously injected with the compounds after fasting overnight, at a dose of 6.0 mg/kg and a volume of 0.03 mL/kg.
Beagles were intravenously injected with the compounds after fasting overnight, at a dose of 1.0 mg/kg and a volume of 2 mL/kg.
Beagles were intragastrically administered with the compound of Example 1-1/Positive Control Example 1, and 1 mL of blood was collected from the orbit before administration and at 0.25 h, 0.5 h, 1.0 h, 2.0 h, 4.0 h, 6.0 h, 8.0 h, 12.0 h, 24 h, 32 h, 48 h, 56 h and 72 h after administration, respectively, and placed in EDTA-K2 anticoagulant blood collection tubes, plasma was centrifuged (centrifugal force: 2200 g, centrifugation time: 10 min, 2-8° C.), and stored at −80° C., and food intake was resumed 3 h after administration.
The compound of Example 1-1/Positive Control Example 1 was subcutaneously injected to beagles, and 1 mL of blood was collected before administration and at 1.0 h, 3.0 h, 8.0 h, 24 h, 48 h, 72 h, 96 h, 168 h, 336 h, 432 h and 504 h after administration, respectively, and placed in EDTA-K2 anticoagulant blood collection tubes, plasma was centrifuged (centrifugal force: 2200 g, centrifugation time: 10 min, 2-8° C.), and stored at −80° C., and food intake was resumed 3 h after administration.
The content of the compound to be tested in the plasma of beagles was determined after the intragastric administration of the compounds at different concentrations: 20 μL of the plasma in beagles at each time after administration was taken, 200 μL of methanol containing internal standard (100 ng/mL) was added, the reaction mixture was subjected to vortex mixing for 1 min, and centrifuged for 7 min (centrifugal force: 18000 g), and 1 μL of the supernatant was taken from the plasma sample for LC/MS/MS analysis. […]

[2] = Monkey pharmacokinetic study (iv, plasma LC/MS/MS); format: in vivo, cynomolgus monkeys; conditions: cynomolgus monkey, intravenous injection, 1 mg/kg
Description: Taking cynomolgus monkeys as test animals and the drug concentrations in monkey plasma at various times after intravenous injection (iv) of the compounds of Example 1-1 and Positive Control Example 1 were measured by using LC/MS/MS method. The pharmacokinetic performance in cynomolgus monkeys of the compounds of the present disclosure was studied and the pharmacokinetic profile thereof was evaluated.
6 non-naïve cynomolgus monkeys (999M-004, medicilon) with 2-5 kg, every 3 of which were in one group.
A certain amount of the compounds was weighed, 5% volume of DMSO, 30% PG, 30% PEG400 and 35% volume of normal saline were added, and the reaction mixture was subjected to vortex ultrasonic stirring for uniform mixing to give a clean administration solution at a concentration of 0.5 mg/mL.
Monkeys were intravenously injected with the compounds after fasting overnight, at a dose of 1.0 mg/kg and a volume of 2 mL/kg.
The compound of Example 1-1/Positive Control Example 1 was intravenously injected to monkeys, and 1 mL of blood was collected through femoral vein before administration and at 5 min, 0.25 h, 0.5 h, 1.0 h, 2.0 h, 4.0 h, 8.0 h, 12.0 h, 24 h, 32 h, 48 h, 56 h and 72 h after administration, respectively, and placed in EDTA-K2 anticoagulant blood collection tubes, plasma was centrifuged (centrifugal force: 2200 g, centrifugal time: 10 min, 2-8° C.), and stored at −80° C., and food intake was resumed 3 h after administration.

[3] = po, intragastric administration, 4 mg/kg
[4] = sc, subcutaneous injection, 6 mg/kg

## CC(C)(C#Cc1nc([C@H](Cc2cc(F)cc(F)c2)NC(=O)Cn2nc(C(F)(F)F)c3c2C(F)(F)[C@@H]2C[C@H]32)c(-c2ccc(Cl)c3c(NS(C)(=O)=O)nn(CC(F)(F)F)c23)c2c1CCC2)S(C)(=O)=O (atropisomer, axis not shown; (aR)) [Example 1-1, N—((S)-1-((R)-4-(4-chloro-3-(methanesulfonamide)-1-(2,2,2-trifluoroethyl)-1H-indazol-7-yl)-1-(3-methyl-3-(methylsulfonyl)but-1-yn-1-yl)-6,7-dihydro-5H-cyclopenta[c]pyridin-3-yl)-2-(3,5-difluorophenyl)ethyl)-2-((3bS,4aR)-5,5-difluoro-3-(trifluoromethyl)-3b,4,4a,5-tetrahydro-1H-cyclopropa[3,4]cyclopenta[1,2-c]pyrazol-1-yl)acetamide]
[1]; intravenous injection, 1 mg/kg
  AUC(0-t): 16500 ng·h/mL
  half-life: 2510 min
  Cmax: 1320 ng/mL
  Clearance CLz/F: 0.7 mL/min/kg
[1]; [3]
  AUC(0-t): 8230 ng·h/mL
  half-life: 2660 min
  Cmax: 251 ng/mL
[1]; [4]
  AUC(0-t): 34800 ng·h/mL
  Cmax: 122 ng/mL
[2]
  Clearance CLz/F: 2.0 mL/min/kg
[2]; plasma, read-out: Area under curve AUC0-72
  AUC(0-t): 8520 ng·h/mL
